Source: ChEMBL document CHEMBL4507284, “Data for DCP probe BI-1230” (2021)

What was measured:
[1] = target: Mitogen-activated protein kinase kinase kinase kinase 2 (Homo sapiens) (UniProt Q12851); settings: Compound concentration 1000.0 nM
[2] = target: Vascular endothelial growth factor receptor 2 (Homo sapiens) (UniProt P35968); settings: Compound concentration 1000.0 nM
[3] = target: Mitogen-activated protein kinase kinase kinase 5 (Homo sapiens) (UniProt Q99683); settings: Compound concentration 1000.0 nM
Sequence of Mitogen-activated protein kinase kinase kinase 5 (Homo sapiens) (Q99683 whole entry): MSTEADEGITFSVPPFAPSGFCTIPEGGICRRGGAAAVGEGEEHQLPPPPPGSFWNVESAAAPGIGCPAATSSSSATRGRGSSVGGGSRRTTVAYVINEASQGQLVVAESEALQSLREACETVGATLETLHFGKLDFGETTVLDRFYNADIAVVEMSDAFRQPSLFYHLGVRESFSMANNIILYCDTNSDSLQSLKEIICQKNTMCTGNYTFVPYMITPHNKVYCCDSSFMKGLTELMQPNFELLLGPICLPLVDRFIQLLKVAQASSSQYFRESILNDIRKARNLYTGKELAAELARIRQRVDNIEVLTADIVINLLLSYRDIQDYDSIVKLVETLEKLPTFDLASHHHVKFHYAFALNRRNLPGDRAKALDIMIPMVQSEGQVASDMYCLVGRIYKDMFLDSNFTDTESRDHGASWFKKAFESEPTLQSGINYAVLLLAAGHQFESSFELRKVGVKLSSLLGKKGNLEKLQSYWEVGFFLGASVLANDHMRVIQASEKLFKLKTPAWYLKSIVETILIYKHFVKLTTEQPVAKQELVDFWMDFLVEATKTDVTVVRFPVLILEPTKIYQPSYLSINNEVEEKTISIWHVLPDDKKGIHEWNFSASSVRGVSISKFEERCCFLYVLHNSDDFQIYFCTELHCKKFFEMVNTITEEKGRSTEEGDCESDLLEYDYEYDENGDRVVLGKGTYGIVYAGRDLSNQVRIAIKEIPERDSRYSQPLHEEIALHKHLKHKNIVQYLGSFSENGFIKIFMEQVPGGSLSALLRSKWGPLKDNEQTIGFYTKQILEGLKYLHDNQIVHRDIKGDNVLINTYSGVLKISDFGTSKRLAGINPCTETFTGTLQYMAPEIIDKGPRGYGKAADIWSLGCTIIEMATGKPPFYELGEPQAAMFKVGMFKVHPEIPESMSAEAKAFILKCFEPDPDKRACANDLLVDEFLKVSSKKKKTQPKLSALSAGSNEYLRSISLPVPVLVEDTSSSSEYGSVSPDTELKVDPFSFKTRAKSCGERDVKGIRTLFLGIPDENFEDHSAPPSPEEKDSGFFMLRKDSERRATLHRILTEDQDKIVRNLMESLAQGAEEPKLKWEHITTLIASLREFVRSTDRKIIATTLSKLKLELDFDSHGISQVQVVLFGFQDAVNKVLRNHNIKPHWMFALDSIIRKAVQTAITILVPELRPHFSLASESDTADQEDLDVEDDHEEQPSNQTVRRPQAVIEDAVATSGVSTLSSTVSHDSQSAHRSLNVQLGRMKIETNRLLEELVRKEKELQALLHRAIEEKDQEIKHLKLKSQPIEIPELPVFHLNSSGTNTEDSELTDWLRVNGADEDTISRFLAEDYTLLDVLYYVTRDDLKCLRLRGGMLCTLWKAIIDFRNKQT

[4] = target: Mitogen-activated protein kinase kinase kinase 13 (Homo sapiens) (UniProt O43283); settings: Compound concentration 1000.0 nM
[5] = target: Cyclin-dependent kinase 2 (Homo sapiens) (UniProt P24941); settings: Compound concentration 1000.0 nM
[6] = target: Serine/threonine-protein kinase SIK2 (Homo sapiens) (UniProt Q9H0K1); settings: Compound concentration 1000.0 nM
[7] = target: Casein kinase II subunit alpha (Homo sapiens) (UniProt P68400); settings: Compound concentration 1000.0 nM
Sequence of Casein kinase II subunit alpha (Homo sapiens) (P68400 whole entry, looked up): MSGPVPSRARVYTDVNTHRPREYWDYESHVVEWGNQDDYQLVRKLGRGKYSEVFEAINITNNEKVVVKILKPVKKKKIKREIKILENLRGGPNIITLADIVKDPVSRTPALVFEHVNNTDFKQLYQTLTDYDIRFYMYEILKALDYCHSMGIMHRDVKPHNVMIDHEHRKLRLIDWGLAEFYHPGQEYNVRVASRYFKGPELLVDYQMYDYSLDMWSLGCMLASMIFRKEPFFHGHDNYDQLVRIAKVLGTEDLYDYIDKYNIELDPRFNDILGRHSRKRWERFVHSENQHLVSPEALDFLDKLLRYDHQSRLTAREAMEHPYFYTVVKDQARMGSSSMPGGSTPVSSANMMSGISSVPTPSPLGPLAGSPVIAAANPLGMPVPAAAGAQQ

[8] = target: Serine/threonine-protein kinase MRCK alpha (Homo sapiens) (UniProt Q5VT25); settings: Compound concentration 1000.0 nM
[9] = target: Serine/threonine-protein kinase WNK2 (Homo sapiens) (UniProt Q9Y3S1); settings: Compound concentration 1000.0 nM
[10] = target: Dual specificity mitogen-activated protein kinase kinase 3 (Homo sapiens) (UniProt P46734); settings: Compound concentration 1000.0 nM
[11] = target: Serine/threonine-protein kinase SIK3 (Homo sapiens) (UniProt Q9Y2K2); settings: Compound concentration 1000.0 nM
[12] = target: Vascular endothelial growth factor receptor 3 (Homo sapiens) (UniProt P35916); settings: Compound concentration 1000.0 nM
[13] = test system: Mast/stem cell growth factor receptor Kit (Homo sapiens), P10721 [D816V]; settings: Compound concentration 1000.0 nM
Sequence of Mast/stem cell growth factor receptor Kit (Homo sapiens), P10721 [D816V] (P10721 whole entry D816V): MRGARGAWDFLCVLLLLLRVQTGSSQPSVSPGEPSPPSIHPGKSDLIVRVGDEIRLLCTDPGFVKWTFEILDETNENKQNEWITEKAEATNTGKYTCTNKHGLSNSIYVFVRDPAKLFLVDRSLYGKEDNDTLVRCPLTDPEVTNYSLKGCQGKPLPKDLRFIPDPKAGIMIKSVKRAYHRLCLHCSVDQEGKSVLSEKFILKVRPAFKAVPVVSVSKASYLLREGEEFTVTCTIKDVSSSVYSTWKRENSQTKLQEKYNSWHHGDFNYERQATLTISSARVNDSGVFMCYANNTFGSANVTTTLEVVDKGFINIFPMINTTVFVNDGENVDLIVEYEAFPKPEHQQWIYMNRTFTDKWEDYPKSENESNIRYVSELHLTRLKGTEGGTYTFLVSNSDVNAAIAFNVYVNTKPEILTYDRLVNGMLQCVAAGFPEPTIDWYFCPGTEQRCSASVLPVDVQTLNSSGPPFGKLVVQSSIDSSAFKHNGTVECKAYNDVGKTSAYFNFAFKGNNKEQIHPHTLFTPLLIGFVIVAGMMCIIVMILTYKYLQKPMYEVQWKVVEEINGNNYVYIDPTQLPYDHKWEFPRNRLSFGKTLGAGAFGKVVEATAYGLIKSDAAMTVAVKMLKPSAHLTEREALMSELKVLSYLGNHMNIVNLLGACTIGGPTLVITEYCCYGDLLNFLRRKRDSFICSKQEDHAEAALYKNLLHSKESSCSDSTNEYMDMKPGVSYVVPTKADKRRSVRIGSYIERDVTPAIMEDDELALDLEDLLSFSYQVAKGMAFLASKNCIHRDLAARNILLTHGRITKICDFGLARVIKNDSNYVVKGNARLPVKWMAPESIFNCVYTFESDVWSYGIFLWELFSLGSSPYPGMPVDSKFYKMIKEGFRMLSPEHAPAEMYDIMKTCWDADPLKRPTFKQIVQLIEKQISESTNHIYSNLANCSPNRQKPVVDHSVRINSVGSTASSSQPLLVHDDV

[14] = target: Calcium/calmodulin-dependent protein kinase kinase 1 (Homo sapiens) (UniProt Q8N5S9); settings: Compound concentration 1000.0 nM
[15] = target: Phosphatidylinositol 4,5-bisphosphate 3-kinase catalytic subunit gamma isoform (Homo sapiens) (UniProt P48736); settings: Compound concentration 1000.0 nM
[16] = target: Fibroblast growth factor receptor 2 (Homo sapiens) (UniProt P21802); settings: Compound concentration 1000.0 nM
[17] = target: Mast/stem cell growth factor receptor Kit (Homo sapiens) (UniProt P10721); settings: Compound concentration 1000.0 nM
[18] = target: Serine/threonine-protein kinase MAK (Homo sapiens) (UniProt P20794); settings: Compound concentration 1000.0 nM
[19] = target: Homeodomain-interacting protein kinase 4 (Homo sapiens) (UniProt Q8NE63); settings: Compound concentration 1000.0 nM
[20] = target: Dual specificity protein kinase CLK4 (Homo sapiens) (UniProt Q9HAZ1); settings: Compound concentration 1000.0 nM
[21] = target: Serine/threonine-protein kinase D3 (Homo sapiens) (UniProt O94806); settings: Compound concentration 1000.0 nM
[22] = target: Mitogen-activated protein kinase kinase kinase 1 (Homo sapiens) (UniProt Q13233); settings: Compound concentration 1000.0 nM
[23] = test system: ALK tyrosine kinase receptor (Homo sapiens), Q9UM73 [C1156Y]; settings: Compound concentration 1000.0 nM
[24] = target: STE20-like serine/threonine-protein kinase (Homo sapiens) (UniProt Q9H2G2); settings: Compound concentration 1000.0 nM
[25] = target: Sodium-dependent serotonin transporter (Homo sapiens) (UniProt P31645); settings: Compound concentration 10.0 uM
[26] = target: Serine/threonine-protein kinase DCLK1 (Homo sapiens) (UniProt O15075); settings: Compound concentration 1000.0 nM
[27] = target: Death-associated protein kinase 2 (Homo sapiens) (UniProt Q9UIK4); settings: Compound concentration 1000.0 nM
Sequence of Death-associated protein kinase 2 (Homo sapiens) (Q9UIK4 whole entry, looked up): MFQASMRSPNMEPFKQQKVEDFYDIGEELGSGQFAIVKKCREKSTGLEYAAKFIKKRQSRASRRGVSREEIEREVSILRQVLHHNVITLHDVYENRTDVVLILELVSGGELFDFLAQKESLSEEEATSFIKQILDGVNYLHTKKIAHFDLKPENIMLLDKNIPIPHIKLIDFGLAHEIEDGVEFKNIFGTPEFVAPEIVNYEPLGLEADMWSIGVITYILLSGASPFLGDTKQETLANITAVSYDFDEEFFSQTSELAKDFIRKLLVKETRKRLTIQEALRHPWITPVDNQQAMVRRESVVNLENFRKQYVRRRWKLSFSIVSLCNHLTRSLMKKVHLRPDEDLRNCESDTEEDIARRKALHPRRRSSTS

[28] = target: Ribosomal protein S6 kinase alpha-6 (Homo sapiens) (UniProt Q9UK32); settings: Compound concentration 1000.0 nM
Sequence of Ribosomal protein S6 kinase alpha-6 (Homo sapiens) (Q9UK32 whole entry): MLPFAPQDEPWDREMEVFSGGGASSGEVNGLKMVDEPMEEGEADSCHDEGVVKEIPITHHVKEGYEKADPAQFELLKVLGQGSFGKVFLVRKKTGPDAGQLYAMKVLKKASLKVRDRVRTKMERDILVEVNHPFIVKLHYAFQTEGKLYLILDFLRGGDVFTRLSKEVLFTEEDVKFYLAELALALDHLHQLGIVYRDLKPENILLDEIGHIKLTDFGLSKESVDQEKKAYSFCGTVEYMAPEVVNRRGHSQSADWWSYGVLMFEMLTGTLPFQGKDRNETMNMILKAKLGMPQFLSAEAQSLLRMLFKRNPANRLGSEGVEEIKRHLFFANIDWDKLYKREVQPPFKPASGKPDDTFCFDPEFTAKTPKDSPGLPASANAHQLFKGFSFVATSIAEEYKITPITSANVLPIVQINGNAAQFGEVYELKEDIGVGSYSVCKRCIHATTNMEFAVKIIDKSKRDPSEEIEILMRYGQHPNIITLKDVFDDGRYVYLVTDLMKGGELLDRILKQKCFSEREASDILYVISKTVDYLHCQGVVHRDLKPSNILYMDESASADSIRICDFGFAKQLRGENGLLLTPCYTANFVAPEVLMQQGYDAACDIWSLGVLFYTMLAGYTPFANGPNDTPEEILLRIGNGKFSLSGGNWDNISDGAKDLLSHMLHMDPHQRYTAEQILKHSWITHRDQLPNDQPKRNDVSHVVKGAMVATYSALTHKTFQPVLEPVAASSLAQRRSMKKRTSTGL

[29] = test system: Tyrosine-protein kinase ABL1 (Homo sapiens), P00519 [F317I]; settings: Compound concentration 1000.0 nM
[30] = target: Ephrin type-A receptor 2 (Homo sapiens) (UniProt P29317); settings: Compound concentration 1000.0 nM
[31] = target: Mitogen-activated protein kinase kinase kinase 14 (Homo sapiens) (UniProt Q99558); settings: Compound concentration 1000.0 nM
[32] = target: Histamine H4 receptor (Homo sapiens) (UniProt Q9H3N8); settings: Compound concentration 10.0 uM
[33] = target: Dual specificity tyrosine-phosphorylation-regulated kinase 1A (Homo sapiens) (UniProt Q13627); settings: Compound concentration 1000.0 nM
[34] = target: Serine/threonine-protein kinase Sgk1 (Homo sapiens) (UniProt O00141); settings: Compound concentration 1000.0 nM
[35] = test system: Epidermal growth factor receptor (Homo sapiens), P00533 [UNDEFINED MUTATION]; settings: Compound concentration 1000.0 nM
Sequence of Epidermal growth factor receptor (Homo sapiens), P00533 [UNDEFINED MUTATION] (P00533 whole entry, looked up, change not shown): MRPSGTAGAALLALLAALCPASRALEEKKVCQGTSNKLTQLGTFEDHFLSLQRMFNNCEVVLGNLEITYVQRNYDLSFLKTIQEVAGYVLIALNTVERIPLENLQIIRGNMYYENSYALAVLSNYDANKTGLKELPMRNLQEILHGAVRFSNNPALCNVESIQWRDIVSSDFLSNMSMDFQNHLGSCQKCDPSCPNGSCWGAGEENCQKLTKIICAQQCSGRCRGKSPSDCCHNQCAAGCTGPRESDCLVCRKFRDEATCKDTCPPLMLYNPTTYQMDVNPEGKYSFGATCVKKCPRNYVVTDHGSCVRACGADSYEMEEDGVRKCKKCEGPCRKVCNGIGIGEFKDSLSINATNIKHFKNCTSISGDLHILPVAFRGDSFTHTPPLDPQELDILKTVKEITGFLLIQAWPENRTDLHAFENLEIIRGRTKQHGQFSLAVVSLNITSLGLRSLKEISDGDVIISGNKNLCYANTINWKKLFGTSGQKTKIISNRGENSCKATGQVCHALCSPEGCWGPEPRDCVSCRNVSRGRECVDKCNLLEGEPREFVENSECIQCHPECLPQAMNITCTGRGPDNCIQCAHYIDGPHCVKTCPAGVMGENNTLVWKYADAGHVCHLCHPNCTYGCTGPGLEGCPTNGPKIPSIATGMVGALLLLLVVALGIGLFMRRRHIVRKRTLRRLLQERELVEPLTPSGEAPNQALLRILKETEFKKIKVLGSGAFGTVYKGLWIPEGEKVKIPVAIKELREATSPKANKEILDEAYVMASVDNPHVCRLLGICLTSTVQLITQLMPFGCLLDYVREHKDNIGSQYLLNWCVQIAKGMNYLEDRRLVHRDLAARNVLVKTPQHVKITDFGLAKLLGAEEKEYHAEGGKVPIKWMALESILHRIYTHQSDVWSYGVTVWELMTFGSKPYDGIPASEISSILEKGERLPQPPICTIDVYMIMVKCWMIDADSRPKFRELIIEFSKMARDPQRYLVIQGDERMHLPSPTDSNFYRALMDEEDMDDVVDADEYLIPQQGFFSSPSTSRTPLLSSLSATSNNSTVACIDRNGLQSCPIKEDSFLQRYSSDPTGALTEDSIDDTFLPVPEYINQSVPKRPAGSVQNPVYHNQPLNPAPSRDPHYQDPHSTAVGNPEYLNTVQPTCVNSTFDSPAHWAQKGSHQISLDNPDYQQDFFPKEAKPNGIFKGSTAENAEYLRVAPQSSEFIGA

[36] = target: Tyrosine-protein kinase SYK (Homo sapiens) (UniProt P43405); settings: Compound concentration 1000.0 nM
[37] = target: Macrophage-stimulating protein receptor (Homo sapiens) (UniProt Q04912); settings: Compound concentration 1000.0 nM
[38] = target: Receptor-interacting serine/threonine-protein kinase 1 (Homo sapiens) (UniProt Q13546); settings: Compound concentration 1000.0 nM
[39] = target: Serine/threonine-protein kinase Nek11 (Homo sapiens) (UniProt Q8NG66); settings: Compound concentration 1000.0 nM
[40] = target: STE20/SPS1-related proline-alanine-rich protein kinase (Homo sapiens) (UniProt Q9UEW8); settings: Compound concentration 1000.0 nM
[41] = test system: Epidermal growth factor receptor (Homo sapiens), P00533 [UNDEFINED MUTATION]; settings: Compound concentration 1000.0 nM; remark: listed apart in the source
[42] = target: Megakaryocyte-associated tyrosine-protein kinase (Homo sapiens) (UniProt P42679); settings: Compound concentration 1000.0 nM
[43] = target: Serine/threonine-protein kinase STK11 (Homo sapiens) (UniProt Q15831); settings: Compound concentration 1000.0 nM
[44] = target: Ephrin type-A receptor 8 (Homo sapiens) (UniProt P29322); settings: Compound concentration 1000.0 nM
[45] = target: Serine/threonine-protein kinase NIM1 (Homo sapiens) (UniProt Q8IY84); settings: Compound concentration 1000.0 nM

For COc1ccc2c(O[C@@H]3C[C@H]4C(=O)N[C@]5(C(=O)O)CC5/C=C\CCCCC[C@H](NC(=O)OC5CCCC5)C(=O)N4C3)cc(-c3csc(NC(=O)C(C)C)n3)nc2c1C (stereo not given in full) [BI 1230], which residual activity [1] is on record?
Its residual activity is 100%.

And the residual activity [2]?
Its residual activity is 83%.

And the residual activity [3]?
The residual activity was 93%.

What about the residual activity [4] of the same molecule?
Its residual activity is 86%.

What about the residual activity [5] of the same molecule?
The residual activity was 99%.

What about the residual activity [6] of the same molecule?
Its residual activity is 100%.

And the residual activity [7]?
Its residual activity is 81%.

What about the residual activity [8] of the same molecule?
The residual activity was 100%.

And the residual activity [9]?
Its residual activity is 87%.

And the residual activity [10]?
The residual activity was 82%.

What about the residual activity [11] of the same molecule?
The residual activity was 97%.

And the residual activity [12]?
Its residual activity is 100%.

What about the residual activity [13] of the same molecule?
Its residual activity is 95%.

What about the residual activity [14] of the same molecule?
Its residual activity is 100%.

And the residual activity [15]?
The residual activity was 65%.

What about the residual activity [16] of the same molecule?
The residual activity was 96%.

And the residual activity [17]?
Its residual activity is 72%.

What about the residual activity [18] of the same molecule?
Its residual activity is 100%.

And the residual activity [19]?
Its residual activity is 99%.

What about the residual activity [20] of the same molecule?
The residual activity was 100%.

What about the residual activity [21] of the same molecule?
Its residual activity is 100%.

And the residual activity [22]?
Its residual activity is 82%.

And the residual activity [23]?
The residual activity was 100%.

And the residual activity [24]?
The residual activity was 100%.

What about the inhibition [25] of the same molecule?
Its inhibition is -8.36%.

And the residual activity [26]?
Its residual activity is 76%.

And the residual activity [27]?
The residual activity was 100%.

And the residual activity [28]?
Its residual activity is 100%.

And the residual activity [29]?
The residual activity was 90%.

What about the residual activity [30] of the same molecule?
The residual activity was 80%.

And the residual activity [31]?
Its residual activity is 89%.

And the inhibition [32]?
The inhibition was 43.5%.

And the residual activity [33]?
Its residual activity is 79%.

What about the residual activity [34] of the same molecule?
Its residual activity is 81%.

And the residual activity [35]?
The residual activity was 98%.

And the residual activity [36]?
Its residual activity is 100%.

What about the residual activity [37] of the same molecule?
The residual activity was 100%.

And the residual activity [38]?
Its residual activity is 100%.

What about the residual activity [39] of the same molecule?
Its residual activity is 84%.

And the residual activity [40]?
Its residual activity is 100%.

And the residual activity [41]?
Its residual activity is 75%.

What about the residual activity [42] of the same molecule?
Its residual activity is 50%.

What about the residual activity [43] of the same molecule?
The residual activity was 100%.

What about the residual activity [44] of the same molecule?
The residual activity was 100%.

What about the residual activity [45] of the same molecule?
The residual activity was 83%.

What does the source list for O=C(N[C@H]1CCCCC/C=C\C2C[C@@]2(C(=O)O)NC(=O)[C@@H]2C[C@@H](Oc3ccncc3)CN2C1=O)OC1CCCC1 (stereo not given in full) [BI 1675]?
residual activity [1]: 100%; residual activity [2]: 100%; residual activity [3]: 91%; residual activity [4]: 100%; residual activity [5]: 87%; residual activity [6]: 100%; residual activity [7]: 83%; residual activity [8]: 87%; residual activity [9]: 100%; residual activity [10]: 80%; residual activity [11]: 95%; residual activity [12]: 93%; residual activity [13]: 90%; residual activity [14]: 96%; residual activity [15]: 78%; residual activity [16]: 79%; residual activity [17]: 84%; residual activity [18]: 82%; residual activity [19]: 100%; residual activity [20]: 93%; residual activity [21]: 82%; residual activity [22]: 84%; residual activity [23]: 100%; residual activity [24]: 100%; inhibition [25]: -6.94%; residual activity [26]: 97%; residual activity [27]: 100%; residual activity [28]: 86%; residual activity [29]: 100%; residual activity [30]: 71%; residual activity [31]: 100%; inhibition [32]: -8.87%; residual activity [33]: 84%; residual activity [34]: 100%; residual activity [35]: 78%; residual activity [36]: 100%; residual activity [37]: 97%; residual activity [38]: 88%; residual activity [39]: 100%; residual activity [40]: 100%; residual activity [41]: 49%; residual activity [42]: 41%; residual activity [43]: 85%; residual activity [44]: 100%; residual activity [45]: 82%
